{"source": "patent US9632088B2", "about": "“Methods and compositions for gamma-secretase assay” (MEMORIAL SLOAN-KETTERING CANCER CENTER, priority 2010, dated 2017)", "target": "T1, γ-secretase (Homo sapiens, UniProt P49768)", "T1 construct": "endogenous in cells; host or cells: HEK293 cells transiently transfected with myc-tagged N1-ΔE (substrate only)", "experiment": "Cell-based Notch cleavage assay, western blot with SM320, HEK293 cells transfected with N1-ΔE", "conditions": "1 μM inhibitor, 48 hours", "description": "HEK293 cells were seeded in a 24-well plate and transfected with either truncated Notch1-ΔE construct (N1-ΔE) (gift from Dr. Raphael Kopan, Washington University School of Medicine, St. Louis, Mo.; (see Supplemental FIG. 1A of van Tetering et al., 2009, J. Biol. Chem., 284:31018-31027, for a diagram of N1-ΔE)) including cmyc (24), or empty pcDNA3.1 (−) (Invitrogen), using Fugene 6 transfection reagents (Roche). N1-ΔE includes the replete intracellular sequence, the transmembrane domain, and a truncated extracellular portion lacking LNR and the EGF repeat sequences (see Supplemental FIG. 1A of van Tetering et al., 2009, J. Biol. Chem., 284:31018-31027). […] The proteins were transferred to PVDF membrane (Millipore) using a semi-dry transfer emit (Bio-Rad) and analyzed by western blot with anti-myc antibody (prepared at Memorial Sloan-Kettering Cancer Center) and SM320 antibody.\nHEK 293 cells were transiently transfected with truncated Notch1-ΔE construct including cmyc (N1-ΔE), a substrate of γ-secretase that is independent of ligand activation, as described in Experimental Methods. […] Cell lysates were analyzed by performing SDS-PAGE and immunoblotting the result with anti-myc and SM320 antibody (FIG. 6A). […] N1-ΔE was detected only in cells transfected with this construct (FIG. 6A, upper panel, lanes 1 and 2) but not in the mock transfected cells (FIG. 6A, upper panel, lane 3).", "data": [{"smiles": "CC(NC(=O)Cc1cc(F)cc(F)c1)C(=O)NC1N=C(c2ccccc2)c2ccccc2N(C)C1=O", "note": "(stereo not shown) [Compound E]", "values": [{"measurement": "detection of cleaved NICD band by SM320 (western blot)", "value": "not in the Compound E-treated cells"}]}]}
